This is an account of results in patent US20140057332A1, “GLUCO-OLIGOSACCHARIDE OXIDASES FROM ACREMONIUM STRICTUM AND USES THEREOF” (The Governing Council of the University of Toronto, priority 2011, published 2014).

What is called kcat is the number of substrate molecules converted per active site and unit of time at saturation.

Data set [1] concerns the target T1, Acremonium strictum gluco-oligosaccharide oxidase GOOX-VN variant 1 Y300A, SEQ ID NO. 6 (Sarocladium strictum, UniProt D7PF15, A38V/S388N/Y300A).
T1 sequence (D7PF15 1-474 A38V/Y300A/S388N): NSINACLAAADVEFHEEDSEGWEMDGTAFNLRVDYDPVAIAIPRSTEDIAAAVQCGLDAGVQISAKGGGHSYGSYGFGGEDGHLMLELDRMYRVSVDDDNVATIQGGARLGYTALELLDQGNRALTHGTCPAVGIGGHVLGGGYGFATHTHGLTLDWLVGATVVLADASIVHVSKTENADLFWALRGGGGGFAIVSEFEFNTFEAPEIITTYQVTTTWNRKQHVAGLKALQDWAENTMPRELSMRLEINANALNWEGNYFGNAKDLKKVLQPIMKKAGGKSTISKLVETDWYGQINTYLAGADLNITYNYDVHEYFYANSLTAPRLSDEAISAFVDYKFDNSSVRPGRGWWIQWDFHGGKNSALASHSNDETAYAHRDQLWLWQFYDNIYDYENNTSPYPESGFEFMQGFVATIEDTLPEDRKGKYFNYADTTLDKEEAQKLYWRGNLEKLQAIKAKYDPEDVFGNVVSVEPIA
Nature of the data set: Enzymatic assay, kinetic analysis (chromogenic H2O2 assay) of Y300A. The conditions noted are these: 37° C., pH 8.0.
Method: (§1) A chromogenic assay was used to measure hydrogen peroxide production (15). Reactions contained 0.1 mM 4aminoantipyrine (4AA), 1 mM phenol, 0.5 U horseradish peroxidase, 40 mM Tris-HCl (pH 8.0), and different substrates were initiated by adding 0.2 μg of enzymes to the 250 μL reaction mixture. The production of H2O2 was coupled to the oxidation of 4aminoantipyrine by horseradish peroxidase and detected at 500 nm. Reactions were incubated at 37° C. for 15 min to measure the specific activity of GOOX on 10 mM of monosaccharide or 1 mM of oligosaccharide.
(§2) At least 12 substrate concentrations were included to obtain kinetic parameters for each substrate. Initial rates were obtained by measuring reaction products every 30 s for 15 min at 37° C. and pH 8.0, and kinetic parameters were calculated using the Michaelis-Menten equation (GraphPad Prism5 Software).

Data set [2] deals with T2, Acremonium strictum gluco-oligosaccharide oxidase GOOX-VN variant 2 Y300N, SEQ ID NO. 7 (Sarocladium strictum, UniProt D7PF15, A38V/S388N/Y300N).
T2 sequence (D7PF15 1-474 A38V/Y300N/S388N): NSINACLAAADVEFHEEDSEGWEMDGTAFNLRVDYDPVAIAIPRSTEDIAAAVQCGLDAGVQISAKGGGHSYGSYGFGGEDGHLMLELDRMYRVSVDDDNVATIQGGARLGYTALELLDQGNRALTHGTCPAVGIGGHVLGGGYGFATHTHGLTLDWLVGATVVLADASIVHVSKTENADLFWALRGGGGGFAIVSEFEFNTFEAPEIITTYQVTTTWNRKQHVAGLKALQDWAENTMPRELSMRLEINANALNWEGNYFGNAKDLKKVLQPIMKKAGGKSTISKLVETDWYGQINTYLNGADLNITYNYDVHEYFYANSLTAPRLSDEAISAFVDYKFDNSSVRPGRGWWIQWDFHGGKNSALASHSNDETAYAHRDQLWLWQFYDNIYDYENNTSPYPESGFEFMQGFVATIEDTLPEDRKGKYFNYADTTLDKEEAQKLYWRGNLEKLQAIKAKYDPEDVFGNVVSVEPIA
Nature of the data set: Enzymatic assay, kinetic analysis (chromogenic H2O2 assay) of Y300N. The conditions noted are these: 37° C., pH 8.0.
Method: as §1, §2

In data set [3] the target is T3, Acremonium strictum gluco-oligosaccharide oxidase GOOX-VN variant 3 W351F, SEQ ID NO. 8 (Sarocladium strictum, UniProt D7PF15, A38V/S388N/W351F).
T3 sequence (D7PF15 1-474 A38V/W351F/S388N): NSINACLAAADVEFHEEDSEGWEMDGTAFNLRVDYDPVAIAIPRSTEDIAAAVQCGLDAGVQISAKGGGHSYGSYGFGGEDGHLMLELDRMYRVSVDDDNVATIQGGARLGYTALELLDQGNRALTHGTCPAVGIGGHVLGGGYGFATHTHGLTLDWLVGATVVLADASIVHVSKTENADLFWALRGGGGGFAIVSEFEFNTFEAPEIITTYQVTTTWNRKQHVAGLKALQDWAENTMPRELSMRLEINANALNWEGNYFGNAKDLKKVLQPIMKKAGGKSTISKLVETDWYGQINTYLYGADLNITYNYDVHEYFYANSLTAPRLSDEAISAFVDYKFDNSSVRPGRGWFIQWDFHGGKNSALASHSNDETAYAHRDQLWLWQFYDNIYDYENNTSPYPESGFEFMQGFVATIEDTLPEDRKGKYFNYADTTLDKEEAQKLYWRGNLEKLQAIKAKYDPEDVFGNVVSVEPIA
Nature of the data set: Enzymatic assay, kinetic analysis (chromogenic H2O2 assay) of W351F. As to conditions: for kcat: 37° C., pH 8.0.
Method: as §1, §2

Data set [4] deals with T4, Acremonium strictum gluco-oligosaccharide oxidase GOOX-VN (type strain CBS 346.70, V38 and N388), SEQ ID NO. 2 (Sarocladium strictum, UniProt D7PF15, A38V/S388N).
T4 sequence (D7PF15 1-474 A38V/S388N): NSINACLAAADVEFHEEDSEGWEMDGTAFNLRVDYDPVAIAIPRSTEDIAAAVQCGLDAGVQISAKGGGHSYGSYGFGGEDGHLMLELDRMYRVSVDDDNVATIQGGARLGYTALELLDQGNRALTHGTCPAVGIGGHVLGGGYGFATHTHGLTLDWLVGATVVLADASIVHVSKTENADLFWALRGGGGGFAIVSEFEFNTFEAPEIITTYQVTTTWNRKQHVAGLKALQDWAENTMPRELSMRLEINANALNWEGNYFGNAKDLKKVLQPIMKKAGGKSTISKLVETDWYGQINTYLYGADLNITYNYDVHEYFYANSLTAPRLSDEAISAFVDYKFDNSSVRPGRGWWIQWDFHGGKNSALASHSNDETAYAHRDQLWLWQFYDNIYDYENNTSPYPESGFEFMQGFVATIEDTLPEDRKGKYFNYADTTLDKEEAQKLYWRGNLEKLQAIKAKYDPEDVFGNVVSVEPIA
Nature of the data set: Enzymatic assay, kinetic analysis (chromogenic H2O2 assay) of GOOX-VN. The conditions noted are these: for kcat: 37° C., pH 8.0.
Method: as §1, §2

Data set [5] in a line: Chromogenic H2O2 oxidase assay on xylopentaose. As to conditions: 1 mM xylopentaose; 37° C., 15 min.
Method: as §1
(§3) An additional eight mutations, identified as Y72F, Y72A, E247A, E314A, W351A, N388S, Q353N, Q384A, were created in GOOX-VN to assess the influence of these residues on the substrate selectivity of GOOX-VN. […] The specific activity of each mutant was then measured at 37° C. for 15 min using 10 mM mono-sugars and 1 mM oligosaccharides as performed for Y300A, Y300N, and W351F (Table 11).
Data set [6] in a line: Chromogenic H2O2 oxidase assay / kinetic analysis on cellobiose. As to conditions: 1 mM cellobiose; 37° C., 15 min.
A short description of data set [7]: Chromogenic H2O2 oxidase assay / kinetic analysis on cellotriose. As to conditions: 1 mM cellotriose; 37° C., 15 min.
Method: as §1, §2
Data set [8] is described as follows: Chromogenic H2O2 oxidase assay on xylohexaose. As to conditions: 1 mM xylohexaose; 37° C., 15 min.
Method: as §1, §3
The nature of data set [9]: Chromogenic H2O2 oxidase assay on xylotetraose. The conditions noted are these: 1 mM xylotetraose; 37° C., 15 min.
Method: as §1, §3
A short description of data set [10]: Chromogenic H2O2 oxidase assay / kinetic analysis on xylobiose. The conditions noted are these: 1 mM xylobiose; 37° C., 15 min.
Data set [11] can be described thus: Chromogenic H2O2 oxidase assay / kinetic analysis on xylotriose. As to conditions: 1 mM xylotriose; 37° C., 15 min.
Method: as §1, §2

Turning to `OC1OC[C@@H](O[C@@H]2OC[C@@H](O[C@@H]3OC[C@@H](O)[C@H](O)[C@H]3O)[C@H](O)[C@H]2O)[C@H](O)[C@H]1O` (stereo partly drawn) [Xylotriose, xylotriose], the kcat in data set [1] was determined as 13.87 ± 0.11 s⁻¹; in data set [2], 11.97 ± 0.185 s⁻¹.
`OC1OC[C@@H](O)[C@H](O)[C@H]1O` (stereo partly drawn) [Xylose, xylose]: the kcat turned out to be 11.33 ± 0.137 s⁻¹ in data set [1], 9.932 ± 0.172 s⁻¹ in [2], 4.618 ± 0.0633 s⁻¹ in data set [3] and 5.248 ± 0.15 s⁻¹ in data set [4]. Moreover, the “change of Km versus GOOX-VN (in words)” value in data set [3] (W351F compared with GOOX-VN) is “increased”.
In the case of `CC(=O)N[C@H]1C(O)O[C@H](CO)[C@@H](O)[C@@H]1O` (stereo partly drawn) [NAG, N-acetylglucosamine], the results for the kcat in data set [2], in [3] and in data set [4] were 11.34 ± 0.113 s⁻¹, 7.785 ± 0.718 s⁻¹ and 8.078 ± 0.203 s⁻¹, respectively.
Regarding `OC[C@H]1OC(O)[C@H](O)[C@@H](O)[C@@H]1O` (stereo partly drawn) [Glucose, glucose], the turnover number (kcat) came out at 13.22 ± 0.24 s⁻¹ in data set [1], 10.81 ± 0.103 s⁻¹ in data set [2], 5.622 ± 0.08 s⁻¹ in data set [3] and 7.485 ± 0.0917 s⁻¹ in data set [4]. Also, the “change of Km versus GOOX-VN (in words)” value in data set [3] (W351F compared with GOOX-VN) was “increased”. Moreover, the “catalytic efficiency (in words)” value in [4] (among glucose, xylose, galactose, NAG) is “highest catalytic efficiency”.
In the case of `OC[C@H]1OC(O)[C@H](O)[C@@H](O)[C@H]1O` (stereo partly drawn) [Galactose, galactose], the kcat worked out at 13.3 ± 0.245 s⁻¹ in [1], 11.76 ± 0.0883 s⁻¹ in [2], 6.56 ± 0.075 s⁻¹ in [3] and 7.152 ± 0.137 s⁻¹ in data set [4]. The “change of Km versus GOOX-VN (in words)” value in data set [3] (W351F compared with GOOX-VN) is “decreased”. In [3] (W351F compared with GOOX-VN), the “change of catalytic efficiency versus GOOX-VN (in words)” value was “higher catalytic efficiency”.
As to `OC1OC[C@@H](O[C@@H]2OC[C@@H](O)[C@H](O)[C@H]2O)[C@H](O)[C@H]1O` (stereo partly drawn) [Xylobiose, xylobiose], the kcat came to 13.29 ± 0.122 s⁻¹ in [1] and 11.96 ± 0.125 s⁻¹ in data set [2].
For `OC[C@H]1O[C@@H](O[C@H]2[C@H](O)[C@@H](O)C(O)O[C@@H]2CO)[C@H](O)[C@@H](O)[C@@H]1O` (stereo partly drawn) [Cellobiose, cellobiose], in that order: 13.72 ± 0.258 s⁻¹ and 11.4 ± 0.187 s⁻¹.

B1: Y72F: GOOX-VN mutant with Y72F substitution (protein)
chain: NSINACLAAADVEFHEEDSEGWEMDGTAFNLRVDYDPVAIAIPRSTEDIAAAVQCGLDAGVQISAKGGGHSFGSYGFGGEDGHLMLELDRMYRVSVDDDNVATIQGGARLGYTALELLDQGNRALTHGTCPAVGIGGHVLGGGYGFATHTHGLTLDWLVGATVVLADASIVHVSKTENADLFWALRGGGGGFAIVSEFEFNTFEAPEIITTYQVTTTWNRKQHVAGLKALQDWAENTMPRELSMRLEINANALNWEGNYFGNAKDLKKVLQPIMKKAGGKSTISKLVETDWYGQINTYLYGADLNITYNYDVHEYFYANSLTAPRLSDEAISAFVDYKFDNSSVRPGRGWWIQWDFHGGKNSALASHSNDETAYAHRDQLWLWQFYDNIYDYENNTSPYPESGFEFMQGFVATIEDTLPEDRKGKYFNYADTTLDKEEAQKLYWRGNLEKLQAIKAKYDPEDVFGNVVSVEPIA
On to B1, for which the “Specific Activity of Enzyme Variants” value in data set [5] was 0.4 µmol/min/mg; in [6], 0.2 µmol/min/mg; in data set [7], 0.5 µmol/min/mg.

B2: Y72A: GOOX-VN mutant with Y72A substitution (protein)
chain: NSINACLAAADVEFHEEDSEGWEMDGTAFNLRVDYDPVAIAIPRSTEDIAAAVQCGLDAGVQISAKGGGHSAGSYGFGGEDGHLMLELDRMYRVSVDDDNVATIQGGARLGYTALELLDQGNRALTHGTCPAVGIGGHVLGGGYGFATHTHGLTLDWLVGATVVLADASIVHVSKTENADLFWALRGGGGGFAIVSEFEFNTFEAPEIITTYQVTTTWNRKQHVAGLKALQDWAENTMPRELSMRLEINANALNWEGNYFGNAKDLKKVLQPIMKKAGGKSTISKLVETDWYGQINTYLYGADLNITYNYDVHEYFYANSLTAPRLSDEAISAFVDYKFDNSSVRPGRGWWIQWDFHGGKNSALASHSNDETAYAHRDQLWLWQFYDNIYDYENNTSPYPESGFEFMQGFVATIEDTLPEDRKGKYFNYADTTLDKEEAQKLYWRGNLEKLQAIKAKYDPEDVFGNVVSVEPIA
With B2, the “Specific Activity of Enzyme Variants” value in data set [8] turned out to be 2.2 µmol/min/mg; in [9], 2.5 µmol/min/mg; in [5], 3.2 µmol/min/mg; in data set [10], 0.5 µmol/min/mg; in data set [6], 1.1 µmol/min/mg; in data set [11] it was 1.3 µmol/min/mg. In addition, the “Specific Activity of Enzyme Variants” value in [7] is 2.1 µmol/min/mg.

B3: Q384A: GOOX-VN mutant with Q384A substitution (protein)
chain: NSINACLAAADVEFHEEDSEGWEMDGTAFNLRVDYDPVAIAIPRSTEDIAAAVQCGLDAGVQISAKGGGHSYGSYGFGGEDGHLMLELDRMYRVSVDDDNVATIQGGARLGYTALELLDQGNRALTHGTCPAVGIGGHVLGGGYGFATHTHGLTLDWLVGATVVLADASIVHVSKTENADLFWALRGGGGGFAIVSEFEFNTFEAPEIITTYQVTTTWNRKQHVAGLKALQDWAENTMPRELSMRLEINANALNWEGNYFGNAKDLKKVLQPIMKKAGGKSTISKLVETDWYGQINTYLYGADLNITYNYDVHEYFYANSLTAPRLSDEAISAFVDYKFDNSSVRPGRGWWIQWDFHGGKNSALASHSNDETAYAHRDQLWLWAFYDNIYDYENNTSPYPESGFEFMQGFVATIEDTLPEDRKGKYFNYADTTLDKEEAQKLYWRGNLEKLQAIKAKYDPEDVFGNVVSVEPIA
As to B3, the “Specific Activity of Enzyme Variants” value in [8] came out at 0.1 µmol/min/mg; in data set [6], 0.2 µmol/min/mg; in [7], 0.4 µmol/min/mg.
